Data as given in patent US20180298332A1, “Microfluidic Model of the Blood Brain Barrier” (EMULATE, Inc., priority 2015, published 2018).

What was measured:
neurons seeded in chip = format: cell-based, human
[1] = test system: cell monolayers with tight junctions; details: cited from earlier work
iBMEC barrier function = experiment: TEER measurement on prototype TEER chips under flow; format: cell-based, human; details: chip under flow, then exposure to TNFa; FIG. 14A
Experimental: Cells were plated on tall channel PDMS chips equipped with incorporated gold electrodes on each channel (see FIG. 13A). Post seeding of BMECs, transendothelial electrical resistance was measured by connecting the electrodes to an EVOM2 voltohmmeter (see FIG. 13B). […] The “damaged” chip was a failure due to the TEER-Chips being a prototype.
Higher TEER values generally indicate a tighter barrier, which is typically desirable for a blood-brain barrier.

[2] = test system: BMECs seeded on a microfluidic device; experiment: Paracellular permeability assay with Dextran-FITC on chip; format: cell-based, human; details: TNF-alpha exposure; Dextran-FITC 4 KDa added to bottom channel, measured in top channel; FIG. 14B
From the text: Brain microvascular endothelial cells (BMECs) constitute the blood-brain barrier (BBB) which forms a dynamic interface between the blood and the central nervous system (CNS) in vivo. This highly specialized interface restricts paracellular diffusion of fluids and solutes including chemicals, toxins and drugs from entering the brain. In this example, fluorescein sodium is used in a paracellular permeability assay of the BMECs seeded on a microfluidic device.
Albumin or Dextran conjugated to a fluorescent probe (e.g., FITC or TRITC) are frequently used to monitor changes in leakage, and thus barrier function. In this case, Dextran-FITC, a green fluorescent molecule of 4 KDa, or sodium fluorescein (a 0.3 KDa molecule), was added to the bottom (“blood side”) channel. Paracellular permeability was calculated by measuring the permeability of the fluorescent molecule on the Top (“brain side”) channel. […] FIG. 14B involves TNF-alpha exposure, but the readout is membrane permeability as measured by Dextran-FITC.

NC1=N[C@H](O)[C@H]2[C@H]3O[C@]4(O)O[C@@H]([C@@H](O)[C@@]2(N1)[C@@H]4O)[C@]3(O)CO [tetrodotoxin]
neuronal calcium flux activity (neurons seeded in chip): ablates this activity

Lucifer Yellow
Permeability (Papp) [1]: 0.5 to 1.2 ×10⁻⁶ cm/s

TNFa
iBMEC barrier function (TEER) after exposure of the chips (iBMEC barrier function): weakening of barrier function | membrane permeability as measured by Dextran-FITC [2]: increase in permeability
